Counter-ions that a name gives are not always drawn.
Assays:
5-HT2A receptor [1] = target: T1, 5-HT2A receptor (Homo sapiens, UniProt P28223); test: Affinity for 5-HT2A receptor binding sites, radioligand binding with [3H]ketanserin; conditions: read-out: Ki 5-HT2A, rat cortex membranes (assay 2) or NIH3T3 h5-HT2A membranes (assay 3), table does not say which
5-HT2B receptor [2] = target: T2, 5-HT2B receptor (Homo sapiens, UniProt P41595); test: Affinity for 5HT2 receptor binding sites, h5-HT2B, [3H]mesulergine; conditions: CHO h5-HT2B membranes
Protocol: Sigmoidal inhibition curves were generated and fitted by nonlinear regression analysis (GraphPad Prism).
Receptor binding was performed using the human recombinant 5-HT2A (GB: X57830), 5-HT2B (GB: Z36748) and 5-HT2C (GB: M81778) receptors. The affinity of the compounds for the 3 different human 5-HT2 receptor subtypes was evaluated by competitive radioligand binding assays using [^3H]ketanserin (h5-HT2A) or [^3H]mesulergine (h5-HT2B and h5-HT2C). The assays were performed on membranes prepared from NIH3T3 stably transfected with h5-HT2A or CHO stably transfected with h5-HT2B and h5-HT2C.

5-HT2B receptor [3] = target: T2, 5-HT2B receptor; test: In vitro functional assay for 5-HT2 receptor (intracellular calcium, FLIPR), 5-HT2B; assay type: cell-based; conditions: same cell lines as receptor binding, read-out: pKb 5-HT2B (converted)
Protocol: In vitro functional properties of these compounds on the different 5-HT2 receptor substypes were determined using fluorometric imaging plate reader (FLIPR) based calcium assay as previously described (Porter, R. H. et al. Br. J. Pharmacol. 1999, 128, 13-20; Jerman, J. C. et al. Eur. J. Pharmacol. 2001, 414, 23-30). The 5-HT2 receptors are linked to the Gq family of G proteins and to subsequent activation of phospholipase C, induction of phosphoinositide metabolism and to an increase in intracelular calcium concentration. The same cell lines as described in the previous section (receptor binding) were used for the FLIPR experiments.

rat 5-HT7a receptor = rat 5-HT7a receptor (Rattus norvegicus, UniProt P32305); test: Affinity for 5-HT7 receptor binding sites, radioligand binding with [3H]5-CT; conditions: membranes of HEK-293 cells with rat 5-HT7a, 1 nM [3H]5-CT
Summary of the method: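 Competition binding on membranes from HEK-293 cells stably expressing rat 5-HT7a, 135 μg protein/mL in 50 mM Tris-HCl pH 7.5, 5 mM EDTA. Incubated 60 min at RT with 1 nM [3H]5-CT and increasing compound concentrations; nonspecific binding with 10 μM 5-HT. Filtration and scintillation counting, in triplicate.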

[4] = target: human recombinant 5-HT6 receptor (Homo sapiens, UniProt P50406); test: Affinity for 5-HT6 receptor binding sites, [3H]LSD; conditions: HEK-293 h5-HT6 membranes
5-HT2A receptor [5] = target: T1, 5-HT2A receptor; test: In vitro functional assay for 5-HT2 receptor (intracellular calcium, FLIPR), 5-HT2A; assay type: cell-based; conditions: same cell lines as receptor binding, read-out: pKb 5-HT2A (converted)
Excerpt: The 5-HT2 receptors are linked to the Gq family of G proteins and to subsequent activation of phospholipase C, induction of phosphoinositide metabolism and to an increase in intracelular calcium concentration. The same cell lines as described in the previous section (receptor binding) were used for the FLIPR experiments.

[6] = target: T3, human recombinant 5-HT2C receptor (Homo sapiens, UniProt P28335); test: Affinity for 5HT2 receptor binding sites, h5-HT2C, [3H]mesulergine; conditions: CHO h5-HT2C membranes
T3 sequence (P28335 33-458): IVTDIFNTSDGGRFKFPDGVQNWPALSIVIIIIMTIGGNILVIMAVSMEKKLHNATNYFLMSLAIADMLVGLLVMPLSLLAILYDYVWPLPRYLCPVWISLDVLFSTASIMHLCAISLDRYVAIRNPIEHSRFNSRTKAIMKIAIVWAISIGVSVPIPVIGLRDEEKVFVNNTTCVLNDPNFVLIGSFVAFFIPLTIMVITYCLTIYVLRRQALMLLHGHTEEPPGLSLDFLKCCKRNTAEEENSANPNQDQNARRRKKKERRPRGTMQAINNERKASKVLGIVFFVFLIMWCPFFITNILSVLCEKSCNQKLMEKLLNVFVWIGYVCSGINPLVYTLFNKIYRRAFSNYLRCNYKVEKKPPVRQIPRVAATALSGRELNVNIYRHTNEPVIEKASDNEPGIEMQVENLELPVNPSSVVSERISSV

T2 sequence (P41595 whole entry): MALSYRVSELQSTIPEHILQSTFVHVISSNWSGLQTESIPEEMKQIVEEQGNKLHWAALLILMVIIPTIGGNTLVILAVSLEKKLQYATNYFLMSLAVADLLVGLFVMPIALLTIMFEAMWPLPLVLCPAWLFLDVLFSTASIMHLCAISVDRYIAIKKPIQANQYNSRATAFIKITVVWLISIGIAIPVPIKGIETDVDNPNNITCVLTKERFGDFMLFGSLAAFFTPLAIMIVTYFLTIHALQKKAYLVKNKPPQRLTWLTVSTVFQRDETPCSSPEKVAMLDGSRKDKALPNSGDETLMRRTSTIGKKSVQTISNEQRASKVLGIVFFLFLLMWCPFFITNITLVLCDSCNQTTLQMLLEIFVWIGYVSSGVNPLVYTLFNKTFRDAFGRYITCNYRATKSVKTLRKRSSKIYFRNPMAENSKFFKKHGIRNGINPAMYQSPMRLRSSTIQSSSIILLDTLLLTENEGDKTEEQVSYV
rat 5-HT7a receptor, sequence (P32305 whole entry): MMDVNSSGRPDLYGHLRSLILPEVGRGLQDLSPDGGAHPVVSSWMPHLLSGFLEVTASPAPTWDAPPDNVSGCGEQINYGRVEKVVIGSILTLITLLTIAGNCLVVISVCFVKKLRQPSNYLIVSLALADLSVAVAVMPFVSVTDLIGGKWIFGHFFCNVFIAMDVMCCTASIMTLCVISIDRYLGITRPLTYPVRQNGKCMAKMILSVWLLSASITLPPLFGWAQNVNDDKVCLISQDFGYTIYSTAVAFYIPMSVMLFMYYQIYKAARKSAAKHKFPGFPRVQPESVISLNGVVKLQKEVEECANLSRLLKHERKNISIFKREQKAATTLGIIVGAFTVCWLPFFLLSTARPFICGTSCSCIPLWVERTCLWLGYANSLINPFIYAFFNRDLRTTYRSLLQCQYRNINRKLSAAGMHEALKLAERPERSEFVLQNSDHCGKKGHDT
human recombinant 5-HT6 receptor, sequence (P50406 whole entry): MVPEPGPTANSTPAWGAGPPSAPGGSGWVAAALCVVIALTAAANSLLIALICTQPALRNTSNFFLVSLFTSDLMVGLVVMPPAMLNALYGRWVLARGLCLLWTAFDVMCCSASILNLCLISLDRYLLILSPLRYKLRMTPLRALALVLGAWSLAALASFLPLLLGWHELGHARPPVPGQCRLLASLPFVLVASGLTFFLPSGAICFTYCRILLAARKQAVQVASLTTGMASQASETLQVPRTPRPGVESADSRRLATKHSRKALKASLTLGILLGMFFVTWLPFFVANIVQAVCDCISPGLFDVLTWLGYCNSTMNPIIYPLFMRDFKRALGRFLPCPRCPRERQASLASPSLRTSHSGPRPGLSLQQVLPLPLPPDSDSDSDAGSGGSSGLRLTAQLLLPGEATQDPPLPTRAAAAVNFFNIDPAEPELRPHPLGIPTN
T1 sequence (P28223 whole entry): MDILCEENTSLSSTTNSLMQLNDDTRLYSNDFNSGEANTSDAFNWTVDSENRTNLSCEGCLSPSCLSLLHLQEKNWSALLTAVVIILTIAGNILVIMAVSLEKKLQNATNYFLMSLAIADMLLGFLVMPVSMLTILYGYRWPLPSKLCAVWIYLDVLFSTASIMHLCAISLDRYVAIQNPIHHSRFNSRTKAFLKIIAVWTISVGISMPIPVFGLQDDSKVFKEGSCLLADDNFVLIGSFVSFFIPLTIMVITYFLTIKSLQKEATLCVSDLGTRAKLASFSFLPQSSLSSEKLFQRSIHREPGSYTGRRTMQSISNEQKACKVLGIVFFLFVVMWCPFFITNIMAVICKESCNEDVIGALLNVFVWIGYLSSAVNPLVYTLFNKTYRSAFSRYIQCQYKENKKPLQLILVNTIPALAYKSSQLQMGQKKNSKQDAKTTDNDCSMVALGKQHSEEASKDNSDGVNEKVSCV

## CN1CCc2c(nc(Cc3ccccc3)nc2-c2ccc(F)cc2)C1 [Example 82, 2-Benzyl-4-(4-fluoro-phenyl)-7-methyl-5,6,7,8-tetrahydro-pyrido[3,4-d]pyrimidine hydrochloride]
5-HT2A receptor [1]
  Ki: 2 nM
5-HT2B receptor [2]
  Ki: 500 nM
5-HT2B receptor [3]
  Kb: 3980 nM
Rat 5-HT7a receptor
  Ki: > 10000 nM
[4]
  Ki: 230 nM
5-HT2A receptor [5]
  Kb: 7.94 nM
[6]
  Ki: 20 nM

Source: patent US7598255B2 (Janssen Pharmaceutica NV, priority 2005, dated 2009)
